Here are results for 14 compounds from patent US10681908B2, “Molecules having pesticidal utility, and intermediates, compositions, and processes, related thereto” (Dow AgroSciences LLC, priority 2016, dated 2020).

Assay type in all cases: in vivo
Series [1] deals with Green Peach Aphid (Myzus persicae, MYZUPE). The experiment in a line: Bioassay on Green Peach Aphid (GPA), foliar spray on infested cabbage seedlings. The conditions noted are these: 72 h, 200 ppm foliar spray, three days, Abbott corrected % control, read-out: GPA % Control (or Mortality) rating. The procedure:
Example B: Bioassays on Green Peach Aphid (Myzus Persicae, MYZUPE) (“GPA”)
Certain molecules disclosed in this document were tested against GPA using procedures described in the following example. In the reporting of the results, the “GPA & YFM Rating Table” was used (See Table Section).
Cabbage seedlings grown in 3-inch pots, with 2-3 small (3-5 cm) true leaves, were used as test substrate. The seedlings were infested with 20-50 GPA (wingless adult and nymph stages) one day prior to chemical application. Four pots with individual seedlings were used for each treatment. Test molecules (2 mg) were dissolved in 2 mL of acetone/methanol (1:1) solvent, forming stock solutions of 1000 ppm test molecule. The stock solutions were diluted 5× with 0.025% Tween 20 in water to obtain the solution at 200 ppm test molecule. A hand-held aspirator-type sprayer was used for spraying a solution to both sides of […] leaves until runoff. Reference plants (solvent check) were sprayed with the diluent only containing 20% by volume of acetone/methanol (1:1) solvent. Treated plants were held in a holding room for three days at approximately 25° C. and ambient relative humidity (RH) prior to grading. Evaluation was conducted by counting the number of live aphids per plant under a microscope. Percent Control was measured by using Abbott's correction formula (W. S. Abbott, “A Method of Computing the Effectiveness of an Insecticide” J. Econ. Entomol. 18 (1925), pp. 265-267) as follows. Corrected % Control=100*(X−Y)/X • where • X=No. of live aphids on solvent check plants and • Y=No. of live aphids on treated plants

Series [2] relates to Cabbage Looper (Trichoplusia ni, TRIPNI). Description: Bioassay on Cabbage Looper (CL), 128-well diet tray assay. As to conditions: 168 h, 50 μg/cm^2 on artificial diet, second instar larvae, five to seven days, 25° C., read-out: CL % Control (or Mortality) rating. In short, it runs like this:
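Diet-tray assay: 1–5 second-instar larvae per well on artificial diet surface-treated with 50 μg/cm^2 compound (90:10 acetone-water, dried), eight wells per compound. Held at 25° C., 14:10 light-dark for five to seven days; percent mortality per well averaged across the eight wells.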

In series [3] the test system is Beet Armyworm (Spodoptera exigua, LAPHEG). Description: Bioassay on Beet Armyworm (BAW), 128-well diet tray assay. As to conditions: 168 h, 50 μg/cm^2 on artificial diet, second instar larvae, five to seven days, 25° C., read-out: BAW % Control (or Mortality) rating. In short, it runs like this:
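Artificial diet was surface-treated with 50 μg/cm^2 of compound in 90:10 acetone-water and dried; one to five second-instar larvae were placed per well, eight wells per treatment. Held at 25 °C, 14:10 light-dark, for five to seven days, then percent mortality per well was averaged.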

Series [4] has as its system Yellow Fever Mosquito (Aedes aegypti, AEDSAE). The conditions noted are these: about 1 day-old larvae, 3 days, room temperature, scored on mortality. In short, it runs like this:
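Compounds from DMSO master plates (4000 ppm stock) diluted with 90:10 water:acetone, then about 1-day-old larvae in liver-powder water added. Held covered at room temperature for 3 days; each well scored for mortality.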

One may read the mortality as the share of the test organisms that died. Regarding `C[C@H](CSCC(F)(F)F)NC(=O)c1ccc(/C(F)=C/C(c2cc(Cl)c(Cl)c(Cl)c2)C(F)(F)F)cc1C(F)(F)F` (stereo partly drawn) [F1, 4-((Z)-1,4,4,4-tetrafluoro-3-(3,4,5-trichlorophenyl)but-1-en-1-yl)-N—((R)-1-((2,2,2-trifluoroethyl)thio)propan-2-yl)-2-(trifluoromethyl)benzamide], the mortality at 200 ppm in series [1] was in the range of 0 to 80%. For the same compound, the mortality at 50 µg/cm2 in series [2] and in series [3] was 50 to 100% throughout.
Take `C[C@H](CS(=O)(=O)CC(F)(F)F)NC(=O)c1ccc(/C(F)=C/C(c2cc(Cl)c(Cl)c(Cl)c2)C(F)(F)F)cc1C(F)(F)F` (stereo partly drawn) [F2, 4-((Z)-1,4,4,4-tetrafluoro-3-(3,4,5-trichlorophenyl)but-1-en-1-yl)-N—((R)-1-((2,2,2-trifluoroethyl)sulfonyl)propan-2-yl)-2-(trifluoromethyl)benzamide]: the mortality at 200 ppm in series [1] is 0 to 80%. The mortality at 50 µg/cm2 in series [2] and in series [3] was 50 to 100% throughout.
For `C[C@H](C[S+]([O-])CC(F)(F)F)NC(=O)c1ccc(/C(F)=C/C(c2cc(Cl)c(Cl)c(Cl)c2)C(F)(F)F)cc1C(F)(F)F` (stereo partly drawn) [F3, 4-((Z)-1,4,4,4-tetrafluoro-3-(3,4,5-trichlorophenyl)but-1-en-1-yl)-N-((2R)-1-((2,2,2-trifluoroethyl)sulfinyl)propan-2-yl)-2-(trifluoromethyl)benzamide], the mortality at 200 ppm in series [1] is 0 to 80%. Further, the mortality at 50 µg/cm2 in series [2] and in series [3] was 50 to 100% throughout.
In the case of `C[C@H](CSCC(F)(F)F)NC(=O)c1ccc(/C(F)=C/C(c2cc(Br)c(Cl)c(Br)c2)C(F)(F)F)cc1C(F)(F)F` (stereo partly drawn) [F21, 4-((Z)-3-(3,5-Dibromo-4-chlorophenyl)-1,4,4,4-tetrafluorobut-1-en-1-yl)-N—((R)-1-((2,2,2-trifluoroethyl)thio)propan-2-yl)-2-(trifluoromethyl)benzamide], the mortality at 200 ppm in series [1] was 80 to 100%. For the same compound, the “YFM % Control (or Mortality) rating” value in series [4] was “A (80-100)”. In addition, the mortality at 50 µg/cm2 in series [2] and in series [3] was 50 to 100% throughout.
In the case of `C[C@H](CS(=O)(=O)CC(F)(F)F)NC(=O)c1ccc(/C(F)=C/C(c2cc(Br)c(Cl)c(Br)c2)C(F)(F)F)cc1C(F)(F)F` (stereo partly drawn) [F22, 4-((Z)-3-(3,5-Dibromo-4-chlorophenyl)-1,4,4,4-tetrafluorobut-1-en-1-yl)-N—((R)-1-((2,2,2-trifluoroethyl)sulfonyl)propan-2-yl)-2-(trifluoromethyl)benzamide], the mortality at 200 ppm in series [1] lay within 0 to 80%. Besides, in series [4], the “YFM % Control (or Mortality) rating” value was “A (80-100)”. Moreover, the mortality at 50 µg/cm2 in series [2] and in series [3] was 50 to 100% in each case.
Consider `CCS(=O)(=O)C[C@@H](C)NC(=O)c1ccc(/C(F)=C/C(c2cc(Br)cc(Br)c2)C(F)(F)F)cc1C(F)(F)F` (stereo partly drawn) [F42, 4-((Z)-3-(3,5-Dibromophenyl)-1,4,4,4-tetrafluorobut-1-en-1-yl)-N—((R)-1-(ethylsulfonyl)propan-2-yl)-2-(trifluoromethyl)benzamide], for which the mortality at 200 ppm in series [1] lay in the range of 0 to 80%. Besides, the “YFM % Control (or Mortality) rating” value in series [4] is on record as “A (80-100)”. The mortality at 50 µg/cm2 in series [2] and in series [3] was 50 to 100% in each case.
Consider `CCS(=O)(=O)C[C@@H](C)NC(=O)c1ccc(/C(F)=C/C(c2cc(Cl)c(F)c(Cl)c2)C(F)(F)F)cc1C(F)(F)F` (stereo partly drawn) [F43, 4-((Z)-3-(3,5-Dichloro-4-fluorophenyl)-1,4,4,4-tetrafluorobut-1-en-1-yl)-N—((R)-1-(ethylsulfonyl)propan-2-yl)-2-(trifluoromethyl)benzamide], for which the mortality at 200 ppm in series [1] was in the range of 80 to 100%. Moreover, the “YFM % Control (or Mortality) rating” value in series [4] is recorded as “A (80-100)”. Besides, the mortality at 50 µg/cm2 in series [2] and in series [3] was 50 to 100% throughout.
For `CCS(=O)(=O)C[C@@H](C)NC(=O)c1ccc(/C(F)=C/C(c2ccc(Cl)c(Cl)c2)C(F)(F)F)cc1C(F)(F)F` (stereo partly drawn) [F46, 4-((Z)-3-(3,4-Dichlorophenyl)-1,4,4,4-tetrafluorobut-1-en-1-yl)-N—((R)-1-(ethylsulfonyl)propan-2-yl)-2-(trifluoromethyl)benzamide], the mortality at 200 ppm in series [1] lay within 0 to 80%. In addition, in series [4], the “YFM % Control (or Mortality) rating” value was “B (More than 0-Less than 80)”. Also, the mortality at 50 µg/cm2 in series [2] and in series [3] was 50 to 100% each time.
Regarding `C[C@H](C[S+](C)[O-])NC(=O)c1ccc(/C(F)=C/C(c2cc(Cl)c(Cl)c(Cl)c2)C(F)(F)F)cc1C(F)(F)F` (stereo partly drawn) [F88, N-((2R)-1-(Methylsulfinyl)propan-2-yl)-4-((Z)-1,4,4,4-tetrafluoro-3-(3,4,5-trichlorophenyl)but-1-en-1-yl)-2-(trifluoromethyl)benzamide], the mortality at 200 ppm in series [1] was 80 to 100%. Besides, the mortality at 50 µg/cm2 in series [2] and in series [3] was 50 to 100% throughout.
Regarding `CCc1ccc(C(/C=C(\F)c2ccc(C(=O)N[C@H](C)CS(=O)(=O)CC(F)(F)F)c(C(F)(F)F)c2)C(F)(F)F)cc1Cl` (stereo partly drawn) [F141, 4-((Z)-3-(3-Chloro-4-ethylphenyl)-1,4,4,4-tetrafluorobut-1-en-1-yl)-N—((R)-1-((2,2,2-trifluoroethyl)sulfonyl)propan-2-yl)-2-(trifluoromethyl)benzamide], in series [4], the “YFM % Control (or Mortality) rating” value was “D (No activity noticed in this bioassay)”. Also, the mortality at 50 µg/cm2 in series [2] and in series [3] was 50 to 100% in each case.
As to `COc1ccc(C(/C=C(\F)c2ccc(C(=O)N[C@H](C)CS(=O)(=O)CC(F)(F)F)c(C(F)(F)F)c2)C(F)(F)F)cc1Cl` (stereo partly drawn) [F142, 4-((Z)-3-(3-Chloro-4-methoxyphenyl)-1,4,4,4-tetrafluorobut-1-en-1-yl)-N—((R)-1-((2,2,2-trifluoroethyl)sulfonyl)propan-2-yl)-2-(trifluoromethyl)benzamide], the “YFM % Control (or Mortality) rating” value in series [4] was “B (More than 0-Less than 80)”. Besides, the mortality at 50 µg/cm2 in series [2] and in series [3] was 50 to 100% in each case.
As to `CCCC(F)(F)c1cc(Cl)cc(C(/C=C(\F)c2ccc(C(=O)N[C@H](C)CS(=O)(=O)CC(F)(F)F)c(C(F)(F)F)c2)C(F)(F)F)c1` (stereo partly drawn) [F143, 4-((Z)-3-(3-Chloro-5-(1,1-difluorobutyl)phenyl)-1,4,4,4-tetrafluorobut-1-en-1-yl)-N—((R)-1-((2,2,2-trifluoroethyl)sulfonyl)propan-2-yl)-2-(trifluoromethyl)benzamide], in series [4], the “YFM % Control (or Mortality) rating” value was “D (No activity noticed in this bioassay)”. For the same compound, the mortality at 50 µg/cm2 in series [2] and in series [3] was 50 to 100% each time.
On to `C[C@H](CS(=O)(=O)CC(F)(F)F)NC(=O)c1ccc(/C(F)=C/C(c2cc(Cl)c(Cl)c(Cl)c2)C(F)(F)F)c2ccccc12` (stereo partly drawn) [PF1, 4-((Z)-1,4,4,4-Tetrafluoro-3-(3,4,5-trichlorophenyl)but-1-en-1-yl)-N—((R)-1-((2,2,2-trifluoroethyl)sulfonyl)propan-2-yl)-1-naphthamide], for which the “YFM % Control (or Mortality) rating” value in series [4] is reported as “A (80-100)”. In addition, the mortality at 50 µg/cm2 in series [2] and in series [3] was 50 to 100% each time.
Regarding `C[C@H](CS(=O)(=O)CC(F)(F)F)NC(=O)c1ccc(/C(F)=C/C(c2ccc(Br)c(Cl)c2)C(F)(F)F)cc1C(F)(F)F` (stereo partly drawn) [PF5, 4-((Z)-3-(4-Bromo-3-chlorophenyl)-1,4,4,4-tetrafluorobut-1-en-1-yl)-N—((R)-1-((2,2,2-trifluoroethyl)sulfonyl)propan-2-yl)-2-(trifluoromethyl)benzamide], in series [4], the “YFM % Control (or Mortality) rating” value is “B (More than 0-Less than 80)”. The mortality at 50 µg/cm2 in series [2] and in series [3] was 50 to 100% throughout.
